Experiments:
[1] = Wheelbox Test (corrosion of coupons in CO2-purged brine/hydrocarbon); conditions: actives only, 24 hours at 176° F., brine/LVT 200, 500 ppm acetic acid
Protocol: Cleaned and pre-weighed coupons are put into bottles containing a mixture of brine (180 mL), and hydrocarbon (LVT 200, 20 mL) and 500 ppm of acetic acid and the resulting mixture is purged with carbon dioxide. An increasing amount of tested inhibitor (5, 10, 25 and 50 ppm) is added into the bottles, the air space in the bottles is purged with CO2 mixture and immediately capped to avoid air contamination. In addition to those bottles that are dosed with inhibitor, three bottles remain untreated. The complete set of capped test bottles is set on the rotating wheel, and run for 24 hours at 176° F. On conclusion of the test, the bottles are removed and allowed to cool to room temperature. The bottles are then uncapped and the coupons are removed, cleaned, dried and re-weighed. Corrosion rate and protection efficiency are then calculated by comparing the mass loss of inhibited coupons to those of the blanks.
Comparative test results for representative bis-quaternary ammonium salts prepared according to the methods of Examples 1 and 2 and a commercially available quaternary ammonium salt are shown in Table 1.

[2] = Field Trial, corrosion rate by electrical resistance MicroCor probes in a production line; conditions: corrosion inhibitor formulations, gas/oil/brine multiphase flow
Description: Field corrosion rate data are obtained from a production line in an Alaskan field that is equipped with high sensitivity electrical resistance MicroCor probes (Rohrback Cosasco Systems, Santa Fe Springs, Calif.). The sensing element of the probe, positioned into gas/oil/brine multiphase flow, reads a cumulative metal loss that is transformed into corrosion rate. Once an uninhibited corrosion rate baseline has been established, corrosion inhibitor formulations are incrementally injected upstream of the probe over a period of thirty hours. The resulting drop in corrosion rates are used to calculates protection efficiency and establish the relative rankings of corrosion inhibitor formulations.
Comparative test results for representative bis-quaternary ammonium salts prepared according to the methods of Examples 1 and 2, a commercially available quaternary ammonium salt and a commercially available alkylbenzyldimethylammonium salt are shown in Table 2.

[3] = system: sulfate-reducing bacteria; test: Biostatic Assay (NACE standard, serial dilution); format: cell-based; conditions: actives only
Protocol: The biostatic properties of representative bis-quaternary ammonium salts are characterized according to the current NACE standard—NACE TMO194094. Viable organisms are cultured from aqueous field samples in iron-rich media purchased from Commercial Microbiology (Houston, Tex.). Stock solutions of the viable organisms in ferrous media are serially diluted in triplicate. Black iron sulfide precipitates indicate micobial growth (of sulfate-reducing bacteria). Clear media solutions indicate complete cell death. Pure media solutions are used as controls and compared against media spiked with 5 to 500 ppm of a test compound. Additives that require increased dilutions to attain complete cell death […], relative to the standard. Those compounds that required fewer dilutions are relatively biostatic.
Comparative test results for representative bis-quaternary ammonium salts prepared according to the methods of Examples 1 and 2 and commercially available quaternary ammonium salts A and B are shown in Table 3.

SMILES	Percent Protection ([1]; 5 ppm inhibitor) [%]	Percent Protection ([1]; 10 ppm inhibitor) [%]	Percent Protection ([1]; 25 ppm inhibitor) [%]	Percent Protection ([1]; 50 ppm inhibitor) [%]	Percent Protection ([2]; 3 ppm) [%]	Percent Protection ([2]; 6 ppm) [%]	Percent Protection ([2]; 11 ppm) [%]	Percent Protection ([2]; 22 ppm) [%]	Percent Protection ([2]; 44 ppm) [%]	log reduction of SRB growth ([3]; 10 ppm) [log]	log reduction of SRB growth ([3]; 25 ppm) [log]	log reduction of SRB growth ([3]; 100 ppm) [log]
CCCCCCCCCCCC[N+](C)(C)CC(O)C[N+](C)(C)CCCCCCCCCCCC.CCCCCCCCCCCC[N+](C)(C)CC(O)C[N+](C)(C)CCCCCCCCCCCC.O=S(=O)([O-])[O-].[Cl-].[Cl-] [Example 1]	65	81	92	91	60.5	87.6	89.8	91.8	98.3	6	6	6
CCCCCCCCC=CCCCCCCCCN(CC(O)C[N+](C)(C)CCCCCCCCCCCC)CC(O)C[N+](C)(C)CCCCCCCCCCCC.[Cl-].[Cl-] (stereo not drawn) [Example 2]	21	73	86	89	76.2	96.2	95.3	97.8	98.0	0	6	6

Reference: patent US8999315B2, “Bis-quaternary ammonium salt corrosion inhibitors” (Nalco Company, priority 2004, dated 2015)
